pIC50: −log10 of the molar value. Like-named read-outs stand apart in the source and are kept apart here.
Columns and labels:
[1] = tested on: human stromal cells; assay: Stromal cell proliferation stimulated by PDGF; assay type: cell-based; details: for pIC50: Homo sapiens; for inhibition of proliferation of human stromal cells stimulated with PDGF: in words
Description: Another assay for measuring activity of the inventive compounds involves determining PDGF (platelet derived growth factor) proliferative response using human-derived stromal cells. […] Two to three days later, the stromal cells are starved in serum-free media. Twenty four hours later, the cells are treated with a stimulating agent, such as PDGF-AA, PDGF-BB or basic FGF (fibroblast growth factor) with or without IL-1α or TNF, and tritiated thymidine. Cell proliferation is determined by liquid scintillation counting.
This assay is a model for restenosis and treatment of atherosclerosis and coronary artery disease. Stromal cells were starved in serum-free media for 24 hrs and then stimulated with PDGF-BB (50 ng/ml). The drugs were added at various concentrations one hour prior to PDGF stimulation. Tritiated thymidine was added for 24 hrs at the time of PDGF stimulation and proliferation determined by harvesting and counting the cells by liquid scintillation 24 hrs later.

[2] = tested on: adhesion of U937 cells to activated human umbilical vein endothelial cells (HUVEC); assay: Adhesion of U937 cells to TNF-activated HUVEC; assay type: cell-based; details: HUVEC activated with 20 ng/ml human TNF for 12 hours; drug one hour prior to TNF; FIG. 5
Description: Another assay measures the effects of drug to inhibit adhesion of U937 cells to TNF-activated HUVEC cells In this experiment, HUVEC cells are induced with human TNF-α (20 ng/ml) and drug at varying concentrations for 14-16 hrs. U937 cells (a human monocyte cell line) are incubated and labeled with BCECF (10 μg/ml), a fluorescent dye. The U937 cell preparation (2.5×10^4 cells per well) is layered on top of the activated HUVEC cells. The cells are reverse spun to remove partially adhering and nonadhering U937 cell. The adherent U937 cells are measured by fluorescence on a fluorescent plate reader.
This example illustrates the effect of CT1573 to inhibit adhesion of U937 cells to activated human umbilical vein endothelial cells (HUVEC). HUVEC cells (4000/well, seeded 72 hrs in advance) were activated with 20 ng/ml of human TNF for 12 hours. CT1573 was added to the samples one hour prior to adding TNF. U937 cells were preloaded with a fluorescent dye (BCECF) were added to the HUVEC cells in each well for 30 min, the cells washed twice with PBS and adhesion measured after washing. Adhesion was measured on a fluorescence plate reader. Background adhesion of U937 cells to non-activated HUVEC is shown as a dashed line.

[3] = tested on: VCAM; assay: Cell surface expression of VCAM in TNF-α-stimulated HUVEC (flow cytometry); assay type: cell-based, human; details: TNF-α (20 ng/ml) for 20 hrs; mean fluorescence intensity; FIG. 6
Description: Drug inhibitory activity can also be measured by determining levels of vascular cell adhesion molecule (VCAM) in stimulated cells. Early passage human umbilical vein endothelial cells (HUVEC) (obtained from commercial suppliers such as Cell Systems, Inc. or Clonetics) are cultured in media (e.g., Hepes buffered media, Cell Systems) containing 10% fetal bovine serum, and supplemented with a stimulating agent, such as fibroblast growth factor (acidic FGF, Cell Systems, Inc.) or TNF. The cells are plated into wells of a microliter plate (e.g., 5×10^4 per well) and allowed to incubate at 37° C. for 72 hrs. […] After 30 min on ice, the cells are washed twice and analyzed on a flow cytometer (Coulter Elite®) at appropriate emission and excitation wavelengths (e.g., for phycoerythrin use excitation at 488 nm and emission at […]).
The cells were stimulated with TNF-α(20 ng/ml) for 20 hrs and then stained for immunofluorescence using a monoclonal antibody recognizing VCAM, followed by a goat anti-mouse antibody conjugated to phycoerythrin. The cells were analyzed for antibody binding using flow cytometry.

[4] = tested on: 293-EBNA cells; assay: Reporter gene expression (CMV promoter, secreted placental alkaline phosphatase) in tumor cells; assay type: cell-based; details: compared with CT1501R, CT1567 and CT1590; absorbance at 405 nm; FIG. 7
Excerpt: FIG. 7 illustrates the effects of CT1590 (racemate N-(5,6-[…]) theobromine), CT1573, CT1567 and CT1501R (an alcohol-substituted xanthine) on cell proliferation as a measure of antitumor activity and the ability of each drug to inhibit gene expression in tumor cells. A specific plasmid construct employing a human CMV (cytomegalovirus) promoter directs the expression of a reporter gene (secreted human placental alkaline phosphatase) that was transformed into the tumor cell line 293-EBNA cells. The cells were treated with various concentrations of drug. Antitumor activity was measured in culture supernatants by expression of alkaline phasphatase reporter gene by absorbance at 405 nm of cell conditioned medium in the presence of substrate (e.g., ortho-nitrophenol phosphate) as described in Berger et al. (Gene 66:1-10, 1988).
This example illustrates the effects of CT1590 (racemate N-(5,6-ethylenedioxyhexyl) theobromine), CT1573, CT1567 and CT1501R (an alcohol-substituted xanthine) on cell proliferation as a measure of antitumor activity and the ability of each drug to inhibit gene expression in tumor cells. A specific plasmid construct employing a human CMV (cytomegalovirus) promoter directs the expression of a reporter gene (secreted human placental alkaline phosphatase) that was transformed into the tumor cell line 293-EBNA cells. […]

[5] = tested on: PBMC (peripheral blood mononuclear cells); assay: Two-way mixed lymphocyte reaction (MLR); assay type: cell-based, human; details: FIG. 1, FIG. 8
Excerpt: Various in vitro assays can be used to measure effects of the inventive compounds to modulate immune activity and have antitumor activity using a variety of cellular types. For example, a mixed lymphocyte reaction (MLR) provides a valuable screening tool to determine biological activity of each inventive compound. In the MLR, PBMCs (peripheral blood mononuclear cells) are obtained by drawing whole blood from healthy volunteers in a heparinized container and diluted with an equal volume of hanks balanced salt solution (HBSS). This mixture is layered on a sucrose density gradient, such as a Ficoll-Hypaque® gradient (specific gravity 1.08), and centrifuged at 1000×g for 25 minutes at room temperature or cooler. PBMC are obtained from a band at a plasma-Ficoll interface, separated and washed at least twice in a saline solution, such as HBSS. Contaminating red cells are lysed, such as by ACK lysis for 10 min at 37° C., and the PBMCs are washed twice in HBSS. The pellet of purified PBMCs is resuspended in complete medium, such as RPMI 1640 plus 20% human inactivated serum. Proliferative response of PBMC to allogeneic stimulation is determined in a two-way MLR performed in a 96-well microtiter plate. […] At the conclusion of the incubation tritiated thymidine is added (for example, 1 μCi/well of 40 to 60 Ci/mmole) and proliferation determined by liquid scintillation counting. […]

[6] = tested on: thymocyte; assay: Thymocyte proliferation stimulated by ConA and IL-2; assay type: cell-based, mice (Balb/C); details: drug added two hours prior to activation; FIG. 3
Description: (§1) A thymocyte costimulator assay is conducted to evaluate the inventive compounds to inhibit activation and proliferation of thymocytes caused by stimulation with Con A and interleukin-1 (IL-1), or interleukin-2 (IL-2). Thymuses are obtained from mice (e.g., female Balb/C mice) and the thymuses are removed and dissociated into culture media (e.g., RPMI 1640 without serum supplementation). The dissociated thymus tissue and cell suspension is transferred to centrifuge tubes and allowed to settle, washed with HBSS and resuspended in serum-supplemented culture media (e.g., RPMI 1640 with 10% fetal calf serum). Any contaminating red cells are lysed, and viable cells are resuspended and counted. Thymocytes are plated (e.g., 96-well plates at a density of 2×10^5 cells/well) and a stimulating agent, such as Con A, IL-1 (e.g., IL-1α) or IL-2 is added to the well. The cells are incubated for 4 days at 37° C. On the fourth day, the cells are pulsed with tritiated thymidine and cell proliferation determined. […]
(§2) Thymuses were obtained from normal, female Balb/C mice, dissociated, and plated into 96-well plates at a density of 2×10^5 cells/well. ConA and IL-1α were added to the wells and the cells were incubated for 4 days at 37° C. […] The cells were harvested and incorporated tritiated thymidine was determined in a liquid scintillation counter. […]

[7] = tested on: thymocyte; assay: Thymocyte proliferation stimulated by ConA and IL-1α; assay type: cell-based, mice (Balb/C); details: drug added two hours prior to activation; FIG. 2
Description: as §1, §2

[8] = tested on: polymorphonuclear leukocytes; details: in response to a stimulator of chemotaxis; U.S. Pat. No. 4,636,507; cited from earlier work
[9] = U.S. Pat. Nos. 4,515,795 and 4,576,947; cited from earlier work
[10] = PDGF BB and IL-1α, FIG. 4, FIG. 9, read-out: IC50 to inhibit stromal cell proliferation stimulated by PDGF BB and IL-1α

SMILES	pIC50 [1, 10]	inhibition of proliferation of human stromal cells stimulated with PDGF [1]	inhibition of cell surface expression of VCAM in HUVEC cells [3]	activity in mixed lymphocyte reaction (proliferative response of PBMC to allogeneic stimulation) [5]	also measured
Cn1cnc2c1c(=O)n(CCCCCCCCC1COCO1)c(=O)n2C (racemic) [CT1573, N-(9,10-methylenedioxydecyl)-3,7-dimethylxanthine]	> 4.00	strongly inhibit proliferation	inhibit cell surface expression of VCAM	–	pIC50 ([1]; 1 h, PDGF-BB (50 ng/ml), drug one hour prior to stimulation, FIG. 4, read-out: IC50 to inhibit stromal cell proliferation stimulated by PDGF BB): > 4.00; inhibition of adhesion of U937 cells to activated HUVEC [2]: reduced adhesion in a dose-dependent manner; inhibition of gene expression in tumor cells (antitumor activity) [4]: strongly inhibited gene expression
Cn1cnc2c1c(=O)n(CCCCC1COCO1)c(=O)n2C (racemic) [CT1590, N-(5,6-methylenedioxyhexyl)-3,7-dimethylxanthine]	~4.00	strongly inhibit proliferation	–	showed activity	–
Cn1cnc2c1c(=O)n(CCCCCC1OCCO1)c(=O)n2C [CT1567]	–	–	inhibit cell surface expression of VCAM	showed activity	inhibition of thymocyte proliferation stimulated by ConA and IL-2 [6]: inhibited thymocyte proliferation at the highest dose tested; inhibition of thymocyte proliferation stimulated by ConA and IL-1α [7]: inhibited thymocyte proliferation in a dose-response manner
CC(O)CCCCn1c(=O)c2c(ncn2C)n(C)c1=O (stereo not drawn) [M1, 1-(5-hydroxyhexyl)-3,7-dimethylxanthine]	–	–	–	–	effect on chemotaxis in polymorphonuclear leukocytes [8]: stimulate chemotaxis; effect on cerebral blood flow [9]: increasing cerebral blood flow

— patent US5440041A, “Acetal or ketal substituted xanthine compounds” (Cell Therapeutics, Inc., priority 1994, dated 1995)
